Results on two compounds are retold here after patent publication EP3741379A1, “COSMETIC COMPOSITION COMPRISING AZADIRACHTA INDICA LEAF EXTRACT” (HONEST CO.,LTD., priority 2019, dated 2020).

For assay [1] the following is noted: Hyaluronic acid + iron 10 ppm; sample at 0.2%.
From the text: When hyaluronic acid is degraded by heavy metals, the viscosity of the solution decreases, so the lower the viscosity, the greater the degradation of hyaluronic acid.
In the next assay the test system is TRP-1 mRNA. As to the kind of experiment: TRP-1 mRNA expression through real-time PCR in α-MSH-treated B16F10. The settings on record: at 100 µg/mL. It is filed as cell-based, mouse. The method, then: As cell lines, RAW 264.7, B16F10 and HacaT cells were aliquoted at 3 x 10^5 cells/well to a 6-well plate and cultured in a 5% CO2 incubator at 37°C for 24 hr. Then, the culture medium was replaced with serum-free DMEM, after which, in order to induce cell inflammation, whitening and wrinkle reduction, RAW 264.7 and B16F10 were treated with lipopolysaccharide (LPS) and alpha-melanocyte-stimulating hormone (α-MSH), respectively, at 1 ppm/well, and the cells were treated with each sample solution at different concentrations and then cultured in a 5% CO2 incubator at 37°C for 24 hr. As for HacaT cells, all experimental groups except the untreated group were washed once with PBS, added with PBS, and irradiated with UV-B (300 mJ/cm^2). After irradiation, the cells were treated with the sample solution at different concentrations and cultured for 24 hr to 48 hr. […] Thereafter, RNA was quantified using absorbance, and cDNA was then synthesized using a TProfessional basic thermocycler instrument. Thereafter, 40 PCR cycles of 95°C for 10 sec, 60°C for 15 sec, and 72°C for 20 sec were performed using Power SYBR Green PCR Master Mix reagents, primers and cDNA and using a Step One real-time PCR system, and quantitative analysis was conducted using an analysis program.
The inhibition rate of TRP-1 mRNA expression by AIE was determined through real-time PCR.
For orientation: Quantitative PCR measures a nucleic acid by following its amplification.

With `O=C([O-])CN(CCN(CC(=O)O)CC(=O)O)CC(=O)[O-].[Na+].[Na+]` [EDTA-2Na], in assay [1], the Viscosity was 7,800 cp.

As to `OC[C@H]1O[C@@H](Oc2ccc(O)cc2)[C@H](O)[C@@H](O)[C@@H]1O` [arbutin], the “inhibition of TRP-1 mRNA expression” value with TRP-1 mRNA amounted to 14.86%.
